How the values were obtained:
[1] = tested on: S6RP serine-240/244 phosphorylation; assay: In vitro phospho-S6 cellular assay; type: cell-based; conditions: Homo sapiens; HEK293T/17 cells, 2 hours; read-out: pS6 inhibition value (IC50), activity level
Summary of the method: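 HEK293T/17 cells (40,000/well for pS6RP, 80,000/well for pAkt) in DMEM, 2% FCS treated 2 h at 37 °C with 8 compound concentrations (0.1% DMSO). Lysates assayed by MesoScale sandwich electrochemiluminescence for pS6RP Ser240/244 or pAkt Ser473. Curves fitted by sigmoidal variable-slope regression.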

[2] = target: DNA-dependent protein kinase (DNA-PK) (Homo sapiens, UniProt P78527); assay: biochemical
DNA-dependent protein kinase (DNA-PK), sequence (P78527 whole entry): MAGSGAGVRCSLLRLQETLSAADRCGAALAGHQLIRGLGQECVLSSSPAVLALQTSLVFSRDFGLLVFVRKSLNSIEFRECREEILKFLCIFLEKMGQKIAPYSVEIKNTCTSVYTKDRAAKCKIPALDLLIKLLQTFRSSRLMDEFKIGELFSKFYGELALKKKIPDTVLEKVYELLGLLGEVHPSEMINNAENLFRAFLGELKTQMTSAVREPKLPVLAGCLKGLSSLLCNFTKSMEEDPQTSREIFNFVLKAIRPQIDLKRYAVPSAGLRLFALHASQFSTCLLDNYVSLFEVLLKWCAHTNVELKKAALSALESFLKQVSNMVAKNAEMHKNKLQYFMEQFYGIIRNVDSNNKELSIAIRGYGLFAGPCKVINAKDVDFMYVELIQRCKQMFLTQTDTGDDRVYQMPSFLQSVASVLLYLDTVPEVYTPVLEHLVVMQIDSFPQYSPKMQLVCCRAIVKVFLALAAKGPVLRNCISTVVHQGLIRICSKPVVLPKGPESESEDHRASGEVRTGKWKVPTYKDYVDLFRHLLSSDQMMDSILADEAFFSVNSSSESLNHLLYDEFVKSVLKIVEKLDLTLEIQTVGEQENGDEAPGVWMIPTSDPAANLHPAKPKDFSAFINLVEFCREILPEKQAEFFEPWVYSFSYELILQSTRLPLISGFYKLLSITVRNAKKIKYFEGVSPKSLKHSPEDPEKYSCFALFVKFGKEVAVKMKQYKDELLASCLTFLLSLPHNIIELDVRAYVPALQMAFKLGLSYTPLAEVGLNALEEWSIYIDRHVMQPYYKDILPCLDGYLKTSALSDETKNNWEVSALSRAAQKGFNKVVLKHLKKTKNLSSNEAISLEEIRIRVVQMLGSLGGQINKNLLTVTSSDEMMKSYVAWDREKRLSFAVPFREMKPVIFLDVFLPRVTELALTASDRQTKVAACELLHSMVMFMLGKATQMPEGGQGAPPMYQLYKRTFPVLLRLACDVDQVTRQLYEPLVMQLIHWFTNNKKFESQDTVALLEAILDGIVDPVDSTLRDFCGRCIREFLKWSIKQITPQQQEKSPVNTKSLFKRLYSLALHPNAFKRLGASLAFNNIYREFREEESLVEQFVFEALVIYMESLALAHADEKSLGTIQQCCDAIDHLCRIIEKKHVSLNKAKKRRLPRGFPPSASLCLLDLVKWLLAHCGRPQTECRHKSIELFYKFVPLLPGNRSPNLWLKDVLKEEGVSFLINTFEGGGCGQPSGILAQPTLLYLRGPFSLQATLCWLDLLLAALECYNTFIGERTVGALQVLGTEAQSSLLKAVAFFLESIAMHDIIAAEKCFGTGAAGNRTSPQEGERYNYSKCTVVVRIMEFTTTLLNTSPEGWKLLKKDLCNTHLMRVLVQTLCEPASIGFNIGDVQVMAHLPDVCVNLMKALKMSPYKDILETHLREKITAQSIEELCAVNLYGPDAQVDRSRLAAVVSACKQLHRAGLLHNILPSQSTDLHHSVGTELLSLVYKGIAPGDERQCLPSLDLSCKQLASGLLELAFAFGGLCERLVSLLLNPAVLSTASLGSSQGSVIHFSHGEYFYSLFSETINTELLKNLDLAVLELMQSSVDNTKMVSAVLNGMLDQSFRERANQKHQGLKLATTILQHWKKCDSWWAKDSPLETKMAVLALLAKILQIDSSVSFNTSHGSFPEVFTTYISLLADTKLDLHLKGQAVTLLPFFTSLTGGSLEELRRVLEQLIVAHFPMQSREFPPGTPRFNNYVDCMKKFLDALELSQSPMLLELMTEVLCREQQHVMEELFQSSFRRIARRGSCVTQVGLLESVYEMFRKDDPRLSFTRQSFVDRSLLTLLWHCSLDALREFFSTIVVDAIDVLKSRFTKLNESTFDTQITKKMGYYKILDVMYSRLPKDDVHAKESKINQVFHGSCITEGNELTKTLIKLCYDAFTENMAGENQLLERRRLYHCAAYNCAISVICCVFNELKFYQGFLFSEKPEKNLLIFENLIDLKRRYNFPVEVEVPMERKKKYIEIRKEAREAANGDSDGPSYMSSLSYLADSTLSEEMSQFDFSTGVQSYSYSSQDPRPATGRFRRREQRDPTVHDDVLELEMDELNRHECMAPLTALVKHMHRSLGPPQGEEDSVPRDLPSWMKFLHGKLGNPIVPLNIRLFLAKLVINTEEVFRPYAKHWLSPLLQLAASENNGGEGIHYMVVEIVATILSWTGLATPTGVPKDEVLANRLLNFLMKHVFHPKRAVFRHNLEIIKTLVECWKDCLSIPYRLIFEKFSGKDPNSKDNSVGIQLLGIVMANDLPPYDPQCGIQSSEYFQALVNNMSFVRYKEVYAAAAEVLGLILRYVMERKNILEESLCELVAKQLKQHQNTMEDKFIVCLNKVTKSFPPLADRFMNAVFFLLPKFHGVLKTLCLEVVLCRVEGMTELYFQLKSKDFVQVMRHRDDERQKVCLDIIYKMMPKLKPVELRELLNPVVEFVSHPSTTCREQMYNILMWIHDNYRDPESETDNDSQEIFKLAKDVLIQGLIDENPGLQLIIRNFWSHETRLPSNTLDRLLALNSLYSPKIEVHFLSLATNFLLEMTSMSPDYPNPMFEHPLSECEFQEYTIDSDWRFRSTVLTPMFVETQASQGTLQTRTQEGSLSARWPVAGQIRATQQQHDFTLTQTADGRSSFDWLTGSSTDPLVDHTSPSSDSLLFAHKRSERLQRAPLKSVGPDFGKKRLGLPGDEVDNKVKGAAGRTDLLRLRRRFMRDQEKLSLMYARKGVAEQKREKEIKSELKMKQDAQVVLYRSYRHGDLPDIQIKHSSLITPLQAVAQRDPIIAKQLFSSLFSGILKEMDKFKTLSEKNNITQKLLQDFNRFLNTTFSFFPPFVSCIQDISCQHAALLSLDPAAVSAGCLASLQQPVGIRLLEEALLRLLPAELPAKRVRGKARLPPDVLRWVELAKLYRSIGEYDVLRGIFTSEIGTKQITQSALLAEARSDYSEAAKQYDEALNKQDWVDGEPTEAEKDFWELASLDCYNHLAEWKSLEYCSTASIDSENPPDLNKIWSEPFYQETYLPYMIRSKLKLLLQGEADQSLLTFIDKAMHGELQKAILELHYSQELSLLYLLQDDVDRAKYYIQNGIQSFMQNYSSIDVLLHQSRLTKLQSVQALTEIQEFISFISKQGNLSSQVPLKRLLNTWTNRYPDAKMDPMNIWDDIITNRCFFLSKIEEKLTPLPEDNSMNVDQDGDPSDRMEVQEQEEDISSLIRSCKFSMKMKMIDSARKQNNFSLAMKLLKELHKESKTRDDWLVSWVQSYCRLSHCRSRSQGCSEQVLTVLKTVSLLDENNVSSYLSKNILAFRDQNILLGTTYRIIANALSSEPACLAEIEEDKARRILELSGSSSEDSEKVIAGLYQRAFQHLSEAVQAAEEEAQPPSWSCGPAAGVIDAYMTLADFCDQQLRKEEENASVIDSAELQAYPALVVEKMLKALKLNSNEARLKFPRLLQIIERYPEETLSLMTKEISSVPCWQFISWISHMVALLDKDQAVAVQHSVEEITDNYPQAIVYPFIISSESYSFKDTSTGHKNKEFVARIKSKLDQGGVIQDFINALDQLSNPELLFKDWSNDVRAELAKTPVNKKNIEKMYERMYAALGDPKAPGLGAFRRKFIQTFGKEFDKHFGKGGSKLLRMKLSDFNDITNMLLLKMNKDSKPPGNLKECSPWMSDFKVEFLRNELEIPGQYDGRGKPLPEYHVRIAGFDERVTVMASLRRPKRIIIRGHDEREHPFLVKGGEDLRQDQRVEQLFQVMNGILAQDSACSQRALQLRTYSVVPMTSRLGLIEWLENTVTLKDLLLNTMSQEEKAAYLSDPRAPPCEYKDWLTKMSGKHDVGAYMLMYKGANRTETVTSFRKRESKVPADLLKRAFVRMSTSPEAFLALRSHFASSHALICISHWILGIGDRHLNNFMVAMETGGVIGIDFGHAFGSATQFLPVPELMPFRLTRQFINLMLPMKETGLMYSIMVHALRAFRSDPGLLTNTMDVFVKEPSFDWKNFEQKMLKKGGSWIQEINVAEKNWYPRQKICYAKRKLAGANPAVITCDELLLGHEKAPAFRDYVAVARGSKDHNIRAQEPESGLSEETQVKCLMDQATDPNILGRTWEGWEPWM

[3] = tested on: IFNγ release in whole blood; assay: In vitro human whole blood assay (IFNγ release); type: cell-based; conditions: αCD3/αCD28 and IL-2 stimulation, 18 hours, read-out: WB inhibition value (pIC50) (converted)
Protocol: This assay measures IFNγ release in whole blood after αCD3/αCD28 and IL-2 treatment. The whole blood contains circulating T lymphocytes; αCD3/αCD28 stimulation mimics antigen receptor signalling, resulting in epigenetic changes to the IFNG gene locus, such that when IL-2 is added, IFNγ is produced.
Human whole blood, with Na-heparin as the anticoagulant, is obtained from Clinical Trials Laboratory Services. Blood is diluted 1.4 times with RPMI 1640 (Lonza, BE12-167F) and 175 μl/well is distributed in a low evaporation 96-well plates (Falcon, BD Labware, 353072). Blood is treated with 10 concentrations of test compounds or DMSO alone for controls (final DMSO concentration 0.2%) and incubated at 37° C. for 1 hour. Blood is then stimulated with 1 μg/ml αCD3 (R&D Systems, MAB100), 1 μg/ml αCD28 (BD Pharmingen, 555725) and IL-2 at 10 ng/ml (Peprotech, 200-02). Blood is then left to incubate at 37° C. for 18 hours. After, plates are spun at 250 g for 5 minutes to pellet blood cells and 25 μl of plasma is transferred to a MesoScale plate coated with an antibody to IFNγ (MesoScale Discovery K151AEC-2) containing 25 μl/well MesoScale Discovery Blocking Solution-2. Plates have been blocked by incubating with 25 μl/well MesoScale Discovery Blocking Solution-2 for 30 minutes at room temperature. After the transfer of sera to the MSD plate, the IFNγ protein is captured on the coated antibody by incubation at room temperature for 2 hour with gentle shaking. After the capture step the plate is washed three times with 150 μl/well of 1×PBS-Tween wash buffer and 25 μl/well detection antibody conjugated with a Sulfo-Tag is added and incubated for 2 hours at room temperature with gentle shaking. Subsequently the antibody solution is removed and the plate is washed 3 times with 150 μl/well 1×PBS-Tween wash buffer and 150 μl/well MesoScale Discovery Read buffer is added. The plates are analysed on a MSD 2400 Plate Reader (MesoScale Discovery). Data analysis is performed using nonlinear regression for a sigmoidal dose-response with a variable slope.

mTOR = mTOR (Homo sapiens, UniProt P42345); assay: biochemical

SMILES	IC50 [1]	IC50 [2]	IC50 [3]	IC50 (mTOR)
CC1Cc2nc(-c3ccc(NC(=O)NC4CC4)cc3)nc(N3CCOC[C@@H]3C)c2CS1(=O)=O (stereo partly drawn) [Example 71, 1-cyclopropyl-3-(4-(7-methyl-4-((S)-3-methylmorpholino)-6,6-dioxido-7,8-dihydro-5H-thiopyrano[4,3-d]pyrimidin-2-yl)phenyl)urea]	< 100 nM	> 10000 nM	794 nM	< 100 nM
CCNC(=O)Nc1ccc(-c2nc3c(c(N4CCOC[C@@H]4C)n2)C(CC)S(=O)(=O)C3)cc1 (stereo partly drawn) [Example 67, 1-ethyl-3-(4-(5-ethyl-4-((S)-3-methylmorpholino)-6,6-dioxido-5,7-dihydrothieno[3,4-d]pyrimidin-2-yl)phenyl)urea]	< 100 nM	> 10000 nM	316 nM	< 100 nM
CC1(C)c2nc(-c3ccc(NC(=O)NC4CC4)cc3)nc(N3C4CCC3COC4)c2CS1(=O)=O [Example 59, 1-(4-(4-(3-oxa-8-azabicyclo[3.2.1]octan-8-yl)-7,7-dimethyl-6,6-dioxido-5,7-dihydrothieno[3,4-d]pyrimidin-2-yl)phenyl)-3-cyclopropylurea]	< 100 nM	> 10000 nM	100 nM	< 100 nM
CCNC(=O)Nc1ccc(-c2nc(N3C4CCC3COC4)c3c(n2)C(C)(C)S(=O)(=O)C3)cc1 [Example 60, 1-(4-(4-(3-oxa-8-azabicyclo[3.2.1]octan-8-yl)-7,7-dimethyl-6,6-dioxido-5,7-dihydrothieno[3,4-d]pyrimidin-2-yl)phenyl)-3-ethylurea]	< 100 nM	> 10000 nM	200 nM	< 100 nM

The next lines start with the values.

IC50 [1]	IC50 [2]	IC50 [3]	IC50 (mTOR)	SMILES
< 100 nM	> 10000 nM	63.1 nM	< 100 nM	CCNC(=O)Nc1ccc(-c2nc3c(c(N4CCOC[C@@H]4CC)n2)[C@H](C)S(=O)(=O)C3)cc1 [Example 53, 1-ethyl-3-(4-((S)-4-((S)-3-ethylmorpholino)-5-methyl-6,6-dioxido-5,7-dihydrothieno[3,4-d]pyrimidin-2-yl)phenyl)urea]
< 100 nM	> 10000 nM	251 nM	< 100 nM	C[C@H]1COCCN1c1nc(-c2ccc(NC(=O)NCCF)cc2)nc2c1CS(=O)(=O)C2(C)C [Example 61, (S)-1-(4-(7,7-dimethyl-4-(3-methylmorpholino)-6,6-dioxido-5,7-dihydrothieno[3,4-d]pyrimidin-2-yl)phenyl)-3-(2-fluoroethyl)urea]
< 100 nM	> 10000 nM	63.1 nM	< 100 nM	CCNC(=O)Nc1ccc(-c2nc3c(c(N4CCOC[C@@H]4C)n2)CS(=O)(=O)C(C)(C)C3)cc1 [Example 73, (S)-1-(4-(7,7-dimethyl-4-(3-methylmorpholino)-6,6-dioxido-7,8-dihydro-5H-thiopyrano[4,3-d]pyrimidin-2-yl)phenyl)-3-ethylurea]
< 100 nM	> 10000 nM	501 nM	< 100 nM	CC1c2c(nc(-c3ccc(NC(=O)NC4CC4)cc3)nc2N2CCOC[C@@H]2C)CCS1(=O)=O (stereo partly drawn) [Example 74, 1-cyclopropyl-3-(4-(5-methyl-4-((S)-3-methylmorpholino)-6,6-dioxido-7,8-dihydro-5H-thiopyrano[4,3-d]pyrimidin-2-yl)phenyl)urea]
< 100 nM	> 10000 nM	398 nM	< 100 nM	CC1Cc2nc(-c3ccc(NC(=O)NC4CC4)cc3)nc(N3CCOC[C@@H]3C)c2C(C)S1(=O)=O (stereo partly drawn) [Example 72, 1-cyclopropyl-3-(4-(5,7-dimethyl-4-((S)-3-methylmorpholino)-6,6-dioxido-7,8-dihydro-5H-thiopyrano[4,3-d]pyrimidin-2-yl)phenyl)urea]
< 100 nM	> 10000 nM	158 nM	< 100 nM	C[C@H]1COCCN1c1nc(-c2ccc(NC(=O)NC3CC3)cc2)nc2c1CS(=O)(=O)C(C)(C)C2 [Example 70, (S)-1-cyclopropyl-3-(4-(7,7-dimethyl-4-(3-methylmorpholino)-6,6-dioxido-7,8-dihydro-5H-thiopyrano[4,3-d]pyrimidin-2-yl)phenyl)urea]

Reference: patent US9242993B2, “Morpholino substituted bicyclic pyrimidine urea or carbamate derivatives as mTOR inhibitors” (CELLZOME LIMITED, priority 2011, dated 2016)
